According to US4440943A, “Phenoxiodinin-5-ium antimicrobial compounds” (The Dow Chemical Company, priority 1982, dated 1984):
Structures can show the parent of a compound that is named as a salt. Where two headings read alike, the source gives them in different places. Values belong to the compound of their own block, whether it stands above or below them.

How the values were obtained:
Type in all cases: cell-based
Staphylococcus aureus = experiment: Agar dilution MIC vs Staphylococcus aureus (trypticase soy agar); conditions: first screened at 500 ppm; for MIC: read-out: Minimum inhibitory concentration, Sa
Description: (§1) A tube containing 30 ml of trypticase soy agar was melted and warmed to 45° C. The test compound was added to the tube at a concentration of 0.05% (500 ppm). The mixture was stirred and poured into plates to harden. When hardened, the plates were inoculated with various aerobic and anaerobic organisms. The aerobic plates were incubated at 37° C. for 24 hours and then read for bacterial growth. The same plates were again incubated at 30° C. for an additional 48 hours at which point they were checked for yeast and fungal growth. The anaerobic plates were incubated at 37° C. in an anaerobic chamber and read at 48 hours.
(§2) After the initial readings, compounds showing sufficient activity were re-tested at various concentrations to determine the minimum inhibitory concentration (MIC) of the compounds of the invention against various bacteria and fungi.

Streptococcus mutans [1] = experiment: Agar dilution MIC vs Streptococcus mutans (trypticase soy agar); conditions: first screened at 500 ppm; for MIC: read-out: Minimum inhibitory concentration, Sm
Description: as §1, §2

[2] = system: Streptococcus mutans (ATCC 10449); experiment: MIC and MBC vs Streptococcus mutans, Todd Hewitt broth, standard dilution; conditions: for MBC: read-out: MBC (minimum bactericidal concentration)
Description: In another procedure, the minimum inhibitory concentration (MIC) and minimum bactericidal concentration (MBC) were determined in ppm for various compounds of the invention against the bacteria, Streptococcus mutans (ATCC 10449). The testing was performed using Todd Hewitt broth and standard dilution techniques.

Salmonella typhosa = experiment: Agar dilution MIC vs Salmonella typhosa (trypticase soy agar); conditions: for MIC: Salmonella enterica, TYPHOSA, read-out: Minimum inhibitory concentration, St, Salmonella typhosa, first screened at 500 ppm; for Minimum inhibitory concentration, St: Salmonella typhosa, first screened at 500 ppm
Description: as §1, §2

Bacillus subtilis = experiment: Agar dilution MIC vs Bacillus subtilis (trypticase soy agar); conditions: first screened at 500 ppm; for MIC: read-out: Minimum inhibitory concentration, Bs
Description: as §1, §2

Streptococcus mutans [3] = experiment: Acid inhibition in Streptococcus mutans (Trypticase-yeast medium with sucrose, NaOH titration); conditions: S. mutans, 48 hours at 37° C.; for minimal effective concentration: Streptococcus mutans, 48 h, read-out: Acid Inhibition (minimum concentration which prevented acid formation)
Description: In still another operation, the acid inhibiting property of these compounds was tested against the known acid producing organism, Streptococcus mutans. Test tubes containing Trypticase-yeast medium with sucrose were inoculated with S. mutans and incubated for 48 hours at 37° C. The tubes were then titrated with 0.1 N sodium hydroxide.

[4] = system: Trichophyton mentagrophytes; experiment: Agar dilution MIC vs Trichophyton mentagrophytes (trypticase soy agar); conditions: first screened at 500 ppm
Description: as §1, §2

Proteus mirabilis = experiment: Agar dilution MIC vs Proteus mirabilis (trypticase soy agar); conditions: first screened at 500 ppm; for MIC: read-out: Minimum inhibitory concentration, Pm
Description: as §1, §2

Escherichia coli = experiment: Agar dilution MIC vs Escherichia coli (trypticase soy agar); conditions: first screened at 500 ppm; for MIC: read-out: Minimum inhibitory concentration, Ec
Description: as §1, §2

Aspergillus fumigatus = experiment: Agar dilution MIC vs Aspergillus fumigatus (trypticase soy agar); conditions: first screened at 500 ppm; for MIC: read-out: Minimum inhibitory concentration, Af
Description: as §1, §2

Aspergillus niger = experiment: Agar dilution MIC vs Aspergillus niger (trypticase soy agar); conditions: first screened at 500 ppm; for MIC: read-out: Minimum inhibitory concentration, An
Description: as §1, §2

Candida pelliculosa = experiment: Agar dilution MIC vs Candida pelliculosa (trypticase soy agar); conditions: first screened at 500 ppm
Description: as §1, §2

[5] = Streptococcus mutans ATCC 10449, Todd Hewitt broth
[6] = Streptococcus mutans, ATCC10449, Streptococcus mutans ATCC 10449, Todd Hewitt broth
[7] = Streptococcus mutans ATCC 10449, Todd Hewitt broth, dihydrate
[8] = Streptococcus mutans ATCC 10449, Todd Hewitt broth, monohydrate
[9] = Streptococcus mutans ATCC 10449, Todd Hewitt broth, hemihydrate
[10] = Streptococcus mutans, ATCC10449, Streptococcus mutans ATCC 10449, Todd Hewitt broth, read-out: MIC

MIC [2, 5]: 3.12 ppm
Compound: O=C(c1ccc2c(c1)[I+]c1cc(C(=O)C34CC5CC(CC(C5)C3)C4)ccc1O2)C12CC3CC(CC(C3)C1)C2 (single isomer, unassigned) [5(a)]
Minimum inhibitory concentration, Sa (Staphylococcus aureus): 12.5 PPM
Minimum inhibitory concentration, Sm (Streptococcus mutans [1]): 3.12 PPM
MBC [2, 6]: 3.12 µg/mL

MIC [2, 5]: 0.78 ppm
Compound: O=C(c1ccc2c(c1)[I+]c1cc(C(=O)C34CC5CC(CC(C5)C3)C4)ccc1O2)C12CC3CC(CC(C3)C1)C2 (single isomer, unassigned) [5(b)]
Minimum inhibitory concentration, Sa (Staphylococcus aureus): 0.78 PPM
Minimum inhibitory concentration, Sm (Streptococcus mutans [1]): 0.78 PPM
MBC (minimum bactericidal concentration) [2, 5]: 1.56 ppm

Compound: CC(=O)c1ccc2c(c1)[I+]c1cc(C(C)=O)ccc1O2 [1(a), 3,7-Diacetylphenoxiodinin-5-ium chloride dihydrate]
MIC (Staphylococcus aureus): 5 µg/mL
MIC (Salmonella typhosa): 10 µg/mL
Minimum inhibitory concentration, Bs (Bacillus subtilis; dihydrate): 5 PPM
Acid Inhibition (minimum concentration which prevented acid formation) (Streptococcus mutans [3]; dihydrate): 0.12 ppm
Minimum inhibitory concentration, Tm ([4]; dihydrate): 500 PPM
Minimum inhibitory concentration, Pm (Proteus mirabilis; dihydrate): 100 PPM
MBC (minimum bactericidal concentration) [2, 7]: 0.98 ppm
MIC [2, 7]: 0.49 ppm
Minimum inhibitory concentration, Ec (Escherichia coli; dihydrate): 50 PPM
MIC (Aspergillus fumigatus): 500 µg/mL

Compound: CC(=O)c1ccc2c(c1)[I+]c1cc(C(C)=O)ccc1O2 [1(b), 3,7-diacetylphenoxiodinin-5-ium bromide monohydrate]
Minimum inhibitory concentration, St (Salmonella typhosa; monohydrate): 10 PPM
Minimum inhibitory concentration, Bs (Bacillus subtilis; monohydrate): 5 PPM
Acid Inhibition (minimum concentration which prevented acid formation) (Streptococcus mutans [3]; monohydrate): 0.1 ppm
Minimum inhibitory concentration, Tm ([4]; monohydrate): 100 PPM
Minimum inhibitory concentration, Pm (Proteus mirabilis; monohydrate): 500 PPM
MBC (minimum bactericidal concentration) [2, 8]: 0.5 ppm
MIC [2, 8]: 0.1 ppm
Minimum inhibitory concentration, Ec (Escherichia coli; monohydrate): 50 PPM

Compound: CC(=O)c1ccc2c(c1)[I+]c1cc(C(C)=O)ccc1O2 [1(c), 3,7-diacetylphenoxiodinin-5-ium bisulfite hemihydrate]
Minimum inhibitory concentration, St (Salmonella typhosa; hemihydrate): 5 PPM
Minimum inhibitory concentration, Bs (Bacillus subtilis; hemihydrate): 1.0 PPM
Acid Inhibition (minimum concentration which prevented acid formation) (Streptococcus mutans [3]; hemihydrate): 0.5 ppm
Minimum inhibitory concentration, Tm ([4]; hemihydrate): 100 PPM
Minimum inhibitory concentration, Pm (Proteus mirabilis; hemihydrate): 50 PPM
MBC (minimum bactericidal concentration) [2, 9]: 8.0 ppm
MIC [2, 9]: 1.0 ppm
Minimum inhibitory concentration, Ec (Escherichia coli; hemihydrate): 10 PPM

Compound: CCC(=O)c1ccc2c(c1)[I+]c1cc(C(=O)CC)ccc1O2 [2(a), 3,7-Dipropionylphenoxiodinin-5-ium chloride hemihydrate]
Minimum inhibitory concentration, Sa (Staphylococcus aureus; hemihydrate): 10 PPM
MIC (Salmonella typhosa): 50 µg/mL
Minimum inhibitory concentration, Bs (Bacillus subtilis; hemihydrate): 50 PPM
Acid Inhibition (minimum concentration which prevented acid formation) (Streptococcus mutans [3]; hemihydrate): 0.1 ppm
MIC ([4]; read-out: Minimum inhibitory concentration, Tm): 500 µg/mL
MIC (Proteus mirabilis): 100 µg/mL
MBC (minimum bactericidal concentration) [2, 9]: 0.5 ppm
MIC [2, 9]: 2.0 ppm
MIC (Escherichia coli): 50 µg/mL

Compound: CCC(=O)c1ccc2c(c1)[I+]c1cc(C(=O)CC)ccc1O2 [2(b)]
Minimum inhibitory concentration, Sa (Staphylococcus aureus): 500 PPM
Minimum inhibitory concentration, Bs (Bacillus subtilis): 500 PPM
Acid Inhibition (minimum concentration which prevented acid formation) (Streptococcus mutans [3]): 7.8 ppm
MBC (minimum bactericidal concentration) [2, 5]: 31 ppm
MIC [2, 5]: 125 ppm

Compound: COC(=O)c1ccc2c(c1)[I+]c1cc(C(=O)O)ccc1O2 [3(a), 3-Carboxy-7-(methoxycarbonyl)phenoxiodinin-5-ium chloride monohydrate]
Minimum inhibitory concentration, Sa (Staphylococcus aureus; monohydrate): 5 PPM
Minimum inhibitory concentration, Sm (Streptococcus mutans [1]; monohydrate): 500 PPM
MIC (Salmonella typhosa): 10 µg/mL
MIC (Bacillus subtilis): 1 µg/mL
minimal effective concentration (Streptococcus mutans [3]): 1 µg/mL
Minimum inhibitory concentration, Tm ([4]; monohydrate): 500 PPM
MIC (Proteus mirabilis): 10 µg/mL
MBC [2, 6]: 2 µg/mL
MIC [2, 10]: 2 µg/mL
MIC (Aspergillus niger): 500 µg/mL
MIC (Escherichia coli): 10 µg/mL
MIC (Candida pelliculosa; Hansenula anomala, read-out: Minimum inhibitory concentration, Cp): 500 µg/mL
MIC (Aspergillus fumigatus): 50 µg/mL

Compound: COC(=O)c1ccc2c(c1)[I+]c1cc(C(=O)O)ccc1O2 [3(b), 3-carboxy-7-(methoxycarbonyl)-phenoxiodinin-5-ium bromide monohydrate]
Minimum inhibitory concentration, Sa (Staphylococcus aureus; monohydrate): 1.0 PPM
Minimum inhibitory concentration, Sm (Streptococcus mutans [1]; monohydrate): 10 PPM
Minimum inhibitory concentration, St (Salmonella typhosa; monohydrate): 5 PPM
Minimum inhibitory concentration, Bs (Bacillus subtilis; monohydrate): 0.5 PPM
Acid Inhibition (minimum concentration which prevented acid formation) (Streptococcus mutans [3]): 1.0 ppm
Minimum inhibitory concentration, Tm ([4]; monohydrate): 100 PPM
Minimum inhibitory concentration, Pm (Proteus mirabilis; monohydrate): 5 PPM
MBC (minimum bactericidal concentration) [2, 8]: 1.0 ppm
MIC [2, 8]: 2.0 ppm
Minimum inhibitory concentration, An (Aspergillus niger): 500 PPM
Minimum inhibitory concentration, Ec (Escherichia coli; monohydrate): 5 PPM
Minimum inhibitory concentration, Cp (Candida pelliculosa): 500 PPM
Minimum inhibitory concentration, Af (Aspergillus fumigatus; monohydrate): 100 PPM

Compound: COC(=O)c1ccc2c(c1)[I+]c1cc(C(=O)O)ccc1O2 [3(c)]
Minimum inhibitory concentration, Sa (Staphylococcus aureus): 1.0 PPM
Minimum inhibitory concentration, Sm (Streptococcus mutans [1]): 500 PPM
Minimum inhibitory concentration, St (Salmonella typhosa): 5 PPM
Minimum inhibitory concentration, Bs (Bacillus subtilis): 0.5 PPM
Acid Inhibition (minimum concentration which prevented acid formation) (Streptococcus mutans [3]): 1.0 ppm
Minimum inhibitory concentration, Tm [4]: 100 PPM
Minimum inhibitory concentration, Pm (Proteus mirabilis): 5 PPM
MBC (minimum bactericidal concentration) [2, 5]: 2.0 ppm
MIC [2, 5]: 1.0 ppm
Minimum inhibitory concentration, An (Aspergillus niger): 500 PPM
Minimum inhibitory concentration, Ec (Escherichia coli): 5 PPM
Minimum inhibitory concentration, Cp (Candida pelliculosa): 500 PPM
Minimum inhibitory concentration, Af (Aspergillus fumigatus): 100 PPM

Compound: CN1CCN(S(=O)(=O)c2ccc3c(c2)[I+]c2cc(S(=O)(=O)N4CCN(C)CC4)ccc2O3)CC1 [4(a), 3,7-bis((4-Methyl-1-piperazinyl)sulfonyl)phenoxiodinin-5-ium bromide, hydrobromide]
MIC (Staphylococcus aureus): 50 µg/mL
MIC (Salmonella typhosa): 500 µg/mL
MIC (Bacillus subtilis): 100 µg/mL
MBC [2, 6]: ≥ 63 µg/mL
MIC [2, 10]: ≥ 63 µg/mL
MIC (Escherichia coli): 500 µg/mL

Compound: O=C(O)c1ccc2c(c1)[I+]c1cc(C(=O)O)ccc1O2 [6(a)]
MIC (Staphylococcus aureus): 1 µg/mL
MIC (Streptococcus mutans [1]): 500 µg/mL
MIC (Salmonella typhosa): 10 µg/mL
MIC (Bacillus subtilis): 0.5 µg/mL
minimal effective concentration (Streptococcus mutans [3]): 3.9 µg/mL
MIC (Proteus mirabilis): 50 µg/mL
MBC [2, 6]: 3.9 µg/mL
MIC [2, 10]: 3.9 µg/mL
MIC (Escherichia coli): 5 µg/mL

Compound: CNS(=O)(=O)c1ccc2c(c1)[I+]c1cc(S(=O)(=O)NC)ccc1O2 [7(a), 3,7-Bis(methylaminosulfonyl)phenoxiodinin-5-ium bromide hemihydrate]
MIC (Staphylococcus aureus): 500 µg/mL

Compound: CNS(=O)(=O)c1ccc2c(c1)[I+]c1cc(S(=O)(=O)NC)ccc1O2 [7(b), 3,7-Bis(methylaminosulfonyl)phenoxiodinin-5-ium chloride]
MIC (Streptococcus mutans [1]): 500 µg/mL
MIC (Salmonella typhosa): 500 µg/mL
MIC (Aspergillus niger): 500 µg/mL
MIC (Escherichia coli): 500 µg/mL

MIC [2, 10]: 62.5 µg/mL
Compound: O=S(=O)(c1ccc2c(c1)[I+]c1cc(S(=O)(=O)N3CCOCC3)ccc1O2)N1CCOCC1 [8(a), 3,7-Bis(4-morpholinylsulfonyl)phenoxiodinin-5-ium sulfate hydrate]
minimal effective concentration (Streptococcus mutans [3]): 8 µg/mL
MBC [2, 6]: > 125 µg/mL

MIC (Staphylococcus aureus): 500 µg/mL
MIC (Bacillus subtilis): 500 µg/mL
MIC [2, 10]: > 125 µg/mL
Compound: CN(C)S(=O)(=O)c1ccc2c(c1)[I+]c1cc(S(=O)(=O)N(C)C)ccc1O2 [9(a), 3,7-Bis(dimethylaminosulfonyl)phenoxiodinin-5-ium bromide]
Acid Inhibition (minimum concentration which prevented acid formation) (Streptococcus mutans [3]): 0.2 ppm
MBC [2, 6]: > 125 µg/mL

MIC [2, 5]: > 125 ppm
Compound: CN(C)S(=O)(=O)c1ccc2c(c1)[I+]c1cc(S(=O)(=O)N(C)C)ccc1O2 [9(b), 3,7-Bis(dimethylaminosulfonyl)phenoxidinin-5-ium chloride]
Minimum inhibitory concentration, Sa (Staphylococcus aureus): 500 PPM
Minimum inhibitory concentration, Bs (Bacillus subtilis): 500 PPM
Acid Inhibition (minimum concentration which prevented acid formation) (Streptococcus mutans [3]): 0.03 ppm
MBC (minimum bactericidal concentration) [2, 5]: > 125 ppm
